Earlier results in patent US6683169B2, “Nucleic acid encoding the human peptide histidine transporter 1 and methods of use thereof” (Rutgers, The State University of New Jersey, priority 2000, dated 2004).
Peptide text beside a SMILES is read from it.

Target: T1, rPHT1 (Rattus norvegicus, UniProt O09014)
T1 construct: host or cells: Xenopus oocytes
Conditions: rPHT1 in Xenopus oocytes; for inhibition of histidine transport: inhibition studies

T1 sequence (O09014 whole entry): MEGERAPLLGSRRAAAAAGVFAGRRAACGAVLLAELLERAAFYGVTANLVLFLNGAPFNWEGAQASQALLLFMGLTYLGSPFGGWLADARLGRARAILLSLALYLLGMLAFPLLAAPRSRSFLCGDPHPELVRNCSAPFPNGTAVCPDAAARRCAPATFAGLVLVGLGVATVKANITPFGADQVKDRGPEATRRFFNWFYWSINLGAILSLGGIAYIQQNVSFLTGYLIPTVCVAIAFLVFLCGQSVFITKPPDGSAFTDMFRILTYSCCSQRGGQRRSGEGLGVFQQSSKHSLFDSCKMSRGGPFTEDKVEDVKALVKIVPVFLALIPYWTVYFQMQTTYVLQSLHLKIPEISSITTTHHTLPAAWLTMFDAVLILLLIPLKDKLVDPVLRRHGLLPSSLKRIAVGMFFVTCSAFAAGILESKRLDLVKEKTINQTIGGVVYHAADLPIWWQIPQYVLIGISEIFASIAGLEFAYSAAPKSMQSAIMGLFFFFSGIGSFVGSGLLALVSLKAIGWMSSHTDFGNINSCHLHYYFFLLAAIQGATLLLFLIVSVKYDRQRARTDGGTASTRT

carnosine uptake versus water-injected control oocytes ([3H]carnosine) | SMILES | inhibition of histidine transport
– | NCC(=O)NCC(=O)NCC(=O)O [Gly-Gly-Gly] (H-Gly-Gly-Gly-OH) | inhibited
– | NCC(=O)NCC(=O)O [Gly-Gly] (H-Gly-Gly-OH) | inhibited
– | CC(C)C[C@H](NC(=O)CN)C(=O)O [Gly-Leu] | inhibited
significantly higher | NCCC(=O)N[C@@H](Cc1cnc[nH]1)C(=O)O [carnosine] | inhibited
